Reference: patent publication US10544147B2, “Purine inhibitors of human phosphatidylinositol 3-kinase delta” (MERCK SHARP & DOHME CORP., priority 2016, dated 2020)

Experiments:
[1] = target: PI3Kalpha (Homo sapiens (Human), UniProt P42336); assay: HTRF PI3K biochemical assay, alpha isoform (selectivity versus delta); conditions: ratio PI3K-alpha IC50 value/PI3K-delta IC50 value
[2] = target: PI3Kdelta (Homo sapiens (Human), UniProt O00329); assay: HTRF PI3K biochemical assay, delta isoform; conditions: 0.3 nM enzyme, 100 uM ATP, 50 uM PIP2; form screened (neutral or TFA salt)
Sequence of PI3Kdelta (O00329 whole entry, canonical isoform): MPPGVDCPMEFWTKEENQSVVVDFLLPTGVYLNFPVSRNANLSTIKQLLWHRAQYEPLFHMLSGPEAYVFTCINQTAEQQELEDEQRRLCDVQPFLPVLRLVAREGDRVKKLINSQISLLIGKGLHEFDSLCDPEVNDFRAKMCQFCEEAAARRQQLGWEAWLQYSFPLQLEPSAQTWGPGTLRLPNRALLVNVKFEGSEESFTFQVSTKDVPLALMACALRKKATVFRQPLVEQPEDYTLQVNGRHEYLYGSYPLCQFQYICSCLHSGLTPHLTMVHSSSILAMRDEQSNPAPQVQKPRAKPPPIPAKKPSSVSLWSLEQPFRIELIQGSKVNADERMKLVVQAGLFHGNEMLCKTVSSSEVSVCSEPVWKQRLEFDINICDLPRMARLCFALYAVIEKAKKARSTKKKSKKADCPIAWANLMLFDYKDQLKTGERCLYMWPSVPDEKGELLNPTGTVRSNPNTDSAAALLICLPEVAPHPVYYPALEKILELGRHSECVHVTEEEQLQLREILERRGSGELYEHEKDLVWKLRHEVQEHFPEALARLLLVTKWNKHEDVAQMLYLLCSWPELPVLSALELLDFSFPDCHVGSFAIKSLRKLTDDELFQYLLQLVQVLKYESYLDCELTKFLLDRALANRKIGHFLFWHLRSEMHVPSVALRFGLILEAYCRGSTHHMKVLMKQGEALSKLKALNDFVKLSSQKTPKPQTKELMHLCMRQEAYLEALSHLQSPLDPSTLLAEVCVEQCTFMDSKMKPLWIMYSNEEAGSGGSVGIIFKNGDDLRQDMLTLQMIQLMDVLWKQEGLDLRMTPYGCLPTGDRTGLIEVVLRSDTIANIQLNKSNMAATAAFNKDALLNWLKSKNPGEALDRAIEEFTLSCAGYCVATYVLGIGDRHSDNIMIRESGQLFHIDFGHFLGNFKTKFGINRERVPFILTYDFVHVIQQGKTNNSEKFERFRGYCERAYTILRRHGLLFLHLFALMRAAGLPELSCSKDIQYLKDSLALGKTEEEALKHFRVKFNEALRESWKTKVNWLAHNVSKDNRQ
Sequence of PI3Kdelta (P27986 whole entry partner, canonical isoform): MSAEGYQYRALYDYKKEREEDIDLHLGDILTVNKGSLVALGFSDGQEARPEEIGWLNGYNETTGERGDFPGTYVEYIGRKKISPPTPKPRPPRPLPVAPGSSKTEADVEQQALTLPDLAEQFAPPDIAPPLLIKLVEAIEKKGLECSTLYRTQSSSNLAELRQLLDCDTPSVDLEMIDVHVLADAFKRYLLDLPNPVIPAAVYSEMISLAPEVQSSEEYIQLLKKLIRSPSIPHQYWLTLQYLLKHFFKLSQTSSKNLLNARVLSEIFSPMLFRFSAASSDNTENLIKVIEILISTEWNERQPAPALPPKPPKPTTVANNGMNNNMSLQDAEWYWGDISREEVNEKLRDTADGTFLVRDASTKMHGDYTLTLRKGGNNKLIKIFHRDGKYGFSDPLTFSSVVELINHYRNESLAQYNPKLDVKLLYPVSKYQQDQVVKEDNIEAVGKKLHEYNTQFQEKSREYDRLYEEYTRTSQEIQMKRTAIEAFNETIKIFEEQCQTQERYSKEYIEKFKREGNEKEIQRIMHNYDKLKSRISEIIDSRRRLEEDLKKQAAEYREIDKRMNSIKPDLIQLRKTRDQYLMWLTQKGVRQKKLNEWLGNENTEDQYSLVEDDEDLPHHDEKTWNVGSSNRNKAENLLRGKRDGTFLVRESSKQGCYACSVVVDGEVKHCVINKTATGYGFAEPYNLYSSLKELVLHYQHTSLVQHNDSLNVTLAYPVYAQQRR

Sequence of PI3Kalpha (P42336 whole entry, canonical isoform): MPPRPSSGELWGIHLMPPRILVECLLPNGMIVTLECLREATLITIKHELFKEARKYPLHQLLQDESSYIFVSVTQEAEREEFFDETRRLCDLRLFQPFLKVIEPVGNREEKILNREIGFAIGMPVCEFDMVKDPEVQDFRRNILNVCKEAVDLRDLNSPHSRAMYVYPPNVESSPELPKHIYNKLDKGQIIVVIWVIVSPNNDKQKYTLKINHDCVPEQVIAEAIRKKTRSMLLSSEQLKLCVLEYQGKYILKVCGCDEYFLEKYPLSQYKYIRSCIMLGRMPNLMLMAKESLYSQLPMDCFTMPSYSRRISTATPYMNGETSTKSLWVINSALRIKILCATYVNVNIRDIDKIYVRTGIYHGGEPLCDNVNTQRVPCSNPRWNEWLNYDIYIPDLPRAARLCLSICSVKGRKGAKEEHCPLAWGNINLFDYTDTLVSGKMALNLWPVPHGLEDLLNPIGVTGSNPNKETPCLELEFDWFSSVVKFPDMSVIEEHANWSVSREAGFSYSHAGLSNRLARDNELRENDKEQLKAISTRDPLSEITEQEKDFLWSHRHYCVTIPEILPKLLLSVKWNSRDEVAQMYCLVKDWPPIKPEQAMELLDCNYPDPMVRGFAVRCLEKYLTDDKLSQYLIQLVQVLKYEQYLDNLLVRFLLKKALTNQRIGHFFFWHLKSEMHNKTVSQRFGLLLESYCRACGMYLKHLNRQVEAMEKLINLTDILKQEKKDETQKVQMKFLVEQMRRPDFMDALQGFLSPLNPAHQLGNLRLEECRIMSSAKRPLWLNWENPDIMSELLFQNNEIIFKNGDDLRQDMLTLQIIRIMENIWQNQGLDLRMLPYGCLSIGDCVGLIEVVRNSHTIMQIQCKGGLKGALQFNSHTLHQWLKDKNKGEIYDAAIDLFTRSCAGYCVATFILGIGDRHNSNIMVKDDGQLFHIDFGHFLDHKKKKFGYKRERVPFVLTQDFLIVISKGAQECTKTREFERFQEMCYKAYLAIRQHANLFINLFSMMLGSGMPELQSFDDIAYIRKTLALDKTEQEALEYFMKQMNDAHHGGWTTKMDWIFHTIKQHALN
Sequence of PI3Kalpha (P27986 whole entry partner, canonical isoform): as the sequence (P27986 whole entry partner, canonical isoform) above

**Q.** Which “Relative Selectivity versus PI3Kalpha” value [1] does the source give for `CCn1c(-c2cnc(C)nc2)nc2c(-c3ccc4c(c3)C(C)(N3CC(OC)C3)C(=O)N4)ncnc21` (single isomer, unassigned) [Compound 2-78, (R or S)-5-(9-ethyl-8-(2-methylpyrimidin-5-yl)-9H-purin-6-yl)-3-(3-methoxyazetidin-1-yl)-3-methylindolin-2-one] here?
**A.** >10

**Q.** And the IC50 [2]?
**A.** 0.238 µM

**Q.** `CCn1c(-c2cnc(C)nc2)nc2c(-c3ccc4c(c3)C(C)(N3CC(OC)C3)C(=O)N4)ncnc21` (single isomer, unassigned) [Compound 2-79, (R or S)-5-(9-ethyl-8-(2-methylpyrimidin-5-yl)-9H-purin-6-yl)-3-(3-methoxyazetidin-1-yl)-3-methylindolin-2-one] was tested. Which “Relative Selectivity versus PI3Kalpha” value [1] did it give?
**A.** >10

**Q.** What about the IC50 [2] of the same compound?
**A.** 0.015 µM

**Q.** Which results are given for `CCn1c(-c2cnc(C)nc2)nc2c(-c3ccc4c(c3)C(C)(N3CC(C)(O)C3)C(=O)N4)ncnc21` (single isomer, unassigned) [Compound 2-80, (R or S)-5-(9-ethyl-8-(2-methylpyrimidin-5-yl)-9H-purin-6-yl)-3-(3-hydroxy-3-methylazetidin-1-yl)-3-methylindolin-2-one]?
**A.** Relative Selectivity versus PI3Kalpha [1]: >10; IC50 [2]: 0.007 µM

**Q.** `CCn1c(-c2cnc(C)nc2)nc2c(-c3ccc4c(c3)C(C)(N3CC(C)(O)C3)C(=O)N4)ncnc21` (single isomer, unassigned) [Compound 2-81, (R or S)-5-(9-ethyl-8-(2-methylpyrimidin-5-yl)-9H-purin-6-yl)-3-(3-hydroxy-3-methylazetidin-1-yl)-3-methylindolin-2-one] was tested. Which “Relative Selectivity versus PI3Kalpha” value [1] did it give?
**A.** >10

**Q.** And the IC50 [2]?
**A.** 0.026 µM

**Q.** With `CCn1c(-c2cnc(C)nc2)nc2c(-c3ccc4c(c3)C(C)(N[C@H]3C[C@H](OC)C3)C(=O)N4)ncnc21` (single isomer, unassigned) [Compound 2-82, 5-(9-ethyl-8-(2-methylpyrimidin-5-yl)-9H-purin-6-yl)-3-(((1R,3R)-3-methoxycyclobutyl)amino)-3(R or S)-methylindolin-2-one] as the compound, how does the “Relative Selectivity versus PI3Kalpha” value [1] read?
**A.** 8

**Q.** What about the IC50 [2] of the same compound?
**A.** 1.57 µM

**Q.** How did the “Relative Selectivity versus PI3Kalpha” value [1] turn out when `CCn1c(-c2cnc(C)nc2)nc2c(-c3ccc4c(c3)C(C)(N[C@H]3C[C@H](OC)C3)C(=O)N4)ncnc21` (single isomer, unassigned) [Compound 2-83, 5-(9-ethyl-8-(2-methylpyrimidin-5-yl)-9H-purin-6-yl)-3-(((1R,3R)-3-methoxycyclobutyl)amino)-3(R or S)-methylindolin-2-one] was run?
**A.** >10

**Q.** And the IC50 [2]?
**A.** 0.021 µM

**Q.** What does the source list for `CCn1c(-c2cnc(C)nc2)nc2c(-c3ccc4c(c3)C3(CCN(C(=O)C5CC5)C3)C(=O)N4)ncnc21` (single isomer, unassigned) [Compound 3-5, (R or S)-1′-(cyclopropanecarbonyl)-5-(9-ethyl-8-(2-methylpyrimidin-5-yl)-9H-purin-6-yl)spiro[indoline-3,3′-pyrrolidin]-2-one]?
**A.** Relative Selectivity versus PI3Kalpha [1]: >10; IC50 [2]: 0.063 µM

**Q.** For `CCn1c(-c2cnc(C)nc2)nc2c(-c3ccc4c(c3)C3(CCN(C(=O)C5CC5)C3)C(=O)N4)ncnc21` (single isomer, unassigned) [Compound 3-6, (R or S)-1′-(cyclopropanecarbonyl)-5-(9-ethyl-8-(2-methylpyrimidin-5-yl)-9H-purin-6-yl)spiro[indoline-3,3′-pyrrolidin]-2-one], which “Relative Selectivity versus PI3Kalpha” value [1] is on record?
**A.** >10

**Q.** And the IC50 [2]?
**A.** 0.026 µM

**Q.** `CCN1C(=O)C2(CCCN2C(=O)C2CC2)c2cc(-c3ncnc4c3nc(-c3cnc(C)nc3)n4CC)ccc21` (single isomer, unassigned) [Compound 3-9, (R or S)-1′-(cyclopropanecarbonyl)-1-ethyl-5-(9-ethyl-8-(2-methylpyrimidin-5-yl)-9H-purin-6-yl)spiro[indoline-3,2′-pyrrolidin]-2-one] was tested. Which “Relative Selectivity versus PI3Kalpha” value [1] did it give?
**A.** >10

**Q.** What about the IC50 [2] of the same compound?
**A.** 0.005 µM
